Data on three compounds can be found in patent publication US4471116A, “Substituted (10H-phenothiazin-10-L)-propyl-1-piperazines” (Hoffmann-La Roche Inc., priority 1982, dated 1984).

Data set [1] relates to Dopamine Turnover-Brain Caudate. The data set is described as follows: Dopamine Turnover-Brain, Caudate. The format is in vivo. Conditions: Rat, 1 Hour Post-Drug.
Data set [2] has as its system Apomorphine Induced Emesis. As to the kind of experiment: Apomorphine Induced Emesis antagonism (Dogs). The format is in vivo, dog. The settings on record: Canis lupus familiaris; Dog, SC, 1 Hour Post-Drug; read-out: Anti-Apomorphine Emesis ED50.
Data set [3] deals with Confinement Motor Activity. The data set is described as follows: Confinement Motor Activity. The format is in vivo. Conditions: Rat, PO, 1 Hour Post-Drug; read-out: Confinement Motor Activity DD50.
For data set [4], the system named is Dopamine Turnover-Brain Limbic and Remainder. As to the kind of experiment: Dopamine Turnover-Brain, Limbic and Remainder. It counts as in vivo. The settings on record: Rat, 1 Hour Post-Drug.
The test system of data set [5] is avoidance behavior. As to the kind of experiment: Discrete Avoidance - Rats (avoidance block / escape block). The format is in vivo, rat. An excerpt: For example, by one procedure, trained rats are placed in experimental chambers equipped with a response lever, a steel grid floor for delivery of electric shock and a loudspeaker for presentation of auditory stimuli. […] The rats can terminate a trial at any point by depression of the response lever. A response during the initial fifteen-second warning tone ends the trial before shock delivery and is considered an avoidance response, while a response occurring during shock delivery is an escape response. Trials are presented every two minutes during a one-hour test session (30 trials per session). […] Compounds are administered to a minimum of three to four rats at each dose level over a range of doses. Rats receive vehicle alone, during control sessions prior to drug administration. Each rat is tested daily or weekly, after a single drug administration, until avoidance behavior returns to pre-drug baseline levels. The session is divided into three consecutive twenty minute (ten trial) segments. Response counts are summed over all subjects at a given dose within each segment. […] This number is expressed as a percentage of the total trials within the segment. […] The lowest dose which produced a 20% block of escape responding (EBD 20) is read from a graphic dose-effect plot. In obtaining these values, percent effect is plotted against the log dose.

Data set [6] relates to Continuous Avoidance. The data set is described as follows: Continuous Avoidance (Squirrel Monkeys). The format is in vivo, squirrel monkey. The settings on record: Primates; Squirrel Monkey, PO, 1 Hour Post-Drug; read-out: Continuous Avoidance MED Shocks.
Data set [7] relates to Amphetamine Induced Rotation. The data set is described as follows: Amphetamine Induced Rotation antagonism (S. Nigra Lesioned Rats) / Rotation Antagonism. It counts as in vivo, rat. The settings on record: Rat, PO, 1 Hour Post-Drug.
Data set [8] relates to Prolactin Secretion. The data set is described as follows: Prolactin Secretion (in-vitro). The format is cell-based. Conditions: Rat, read-out: Prolactin Secretion ID50.
The nature of data set [9]: Acute toxicity (LD50) in mice after a single dose. Conditions: mouse, in vivo; for LD50 at 168 h: 7 days.
For data set [10], the system named is revertant colonies. The data set is described as follows: Ames procedure (mutagenicity).

SMILES strings stand for the structures. pIC50: −log10 of the molar value. Read-outs that look alike come from different tables or passages of the source. Where only a bound is given, the exact number is not on record here.

For the compound `O=C(CCCN1CCC(O)(c2ccc(Cl)cc2)CC1)c1ccc(F)cc1` [Haloperidol, haloperidol, reference compound], the “Dopamine Turnover-Brain, Caudate” value in [1] (1 mg/kg IP) was “Signif. .uparw”. For the same compound, the ED50 worked out at 0.02 mg/kg in data set [2]; 0.4 mg/kg in data set [3]; 0.35 mg/kg in [5] (Rat, PO, 1 Hour Post-Drug, read-out: Discrete Avoidance ABD50); 0.35 mg/kg in data set [7]. In addition, the “Dopamine Turnover-Brain, Limbic and Remainder” value in [4] (1 mg/kg IP) is reported as “Signif. .uparw”. Besides, the minimal effective dose in data set [6] was 0.28 mg/kg.

Take `CN(C)CCCN1c2ccccc2Sc2ccc(Cl)cc21` [Chlorpromazine, chlorpromazine, reference compound]: the “Dopamine Turnover-Brain, Caudate” value in data set [1] (10 mg/kg IP) was “Signif. .uparw”. The ED50 in data set [2] was 1.4 mg/kg; in [3], 4.6 mg/kg; in data set [5] (Rattus norvegicus, po, 1 h, read-out: Discrete Avoidance ABD50), 5 mg/kg; in [7], 20.5 mg/kg. The “Dopamine Turnover-Brain, Limbic and Remainder” value in data set [4] (10 mg/kg IP) is “Signif. .uparw”. The minimal effective dose in [6] is 2 mg/kg. In data set [8], the pIC50 is 6.89.

In general, LD50 refers to the dose at which mortality reaches 50%. Lower therefore signals a more toxic substance. Consider `CC(C)Nc1ccc(OCCN2CCN(CCCN3c4ccccc4Sc4ccc(Cl)cc43)CC2)cc1.O=C(O)/C=C\C(=O)O` [Compound B, N-[4-[2-[4-[3-(2-chloro-10H-phenothiazin-10-yl)propyl]-1-piperazinyl]ethoxy]phenyl]-α-methylethaneamine (Z)-2-butenedioate], for which the figures for the LD50 at 168 h in [9] (ip) and in [9] (po) were 230 mg/kg and 248 mg/kg, respectively. Further, the LD50 at 24 h in data set [9] (po, 24 hours) was over 1000 mg/kg. Moreover, in data set [10], the “mutogenic effects (conclusion)” value is “free of mutogenic effects”. For the same compound, in data set [10], the “revertant colonies (Ames)” value is on record as “no increase in revertant colonies”. In data set [5] (30 mg/kg po), the “Duration of Sig. Activity” value is on record as 3 days. In addition, in [5] (30 mg/kg po), the “Time of Peak Effect” value came out at 60 min. In addition, the inhibition in vivo at 30 mg/kg in data set [5] (Rattus norvegicus, 1 h, 30 mg/kg po, 60 min. post-drug, read-out: Percentage Block of Avoidance, 60 min. post-drug) came to 100%; in data set [5] (Rattus norvegicus, 30 mg/kg po, 24 hrs. post-drug, read-out: Percentage Block of Avoidance, 24 hrs. post-drug) it was 70%; in data set [5] (Rattus norvegicus, 30 mg/kg po, at the indicated duration, read-out: Avoidance block at Duration of Sig. Activity (AB)), 43%; in [5] (Rattus norvegicus, 30 mg/kg po, at time of peak effect, read-out: Avoidance block at Time of Peak Effect (AB)), 100%. For the same compound, in [5] (Rattus norvegicus, po, 1 h, p.o., 60 minutes pretreatment, day of administration, read-out: ABD50), the ED50 was 8.7 mg/kg. Besides, the “duration of neuroleptic effect (in words)” value in [5] (discrete avoidance procedure) was “several days”. Moreover, the “time of maximum neuroleptic activity (in words)” value in data set [5] (p.o.) is “on the day of administration”.
